Measured values from patent publication US9877927B2, “Inhibitor of odor caused by Furaneol” (Kao Corporation, priority 2013, dated 2018).

Experiments:
olfactory receptor OR5K1 [1] = target: T1, olfactory receptor OR5K1 (Homo sapiens, UniProt Q8NHB7); test: Antagonistic activity against the response of OR5K1 to Furaneol (luciferase assay); assay type: cell-based; conditions: Furaneol 3 mM, test substance 100 μM, HEK293 cells expressing OR5K1; vs Furaneol alone; read-out: Rate of inhibition of the response of OR5K1 to Furaneol
T1 construct: expressed in transfected cells; host or cells: HEK293
T1 sequence (Q8NHB7 1-308): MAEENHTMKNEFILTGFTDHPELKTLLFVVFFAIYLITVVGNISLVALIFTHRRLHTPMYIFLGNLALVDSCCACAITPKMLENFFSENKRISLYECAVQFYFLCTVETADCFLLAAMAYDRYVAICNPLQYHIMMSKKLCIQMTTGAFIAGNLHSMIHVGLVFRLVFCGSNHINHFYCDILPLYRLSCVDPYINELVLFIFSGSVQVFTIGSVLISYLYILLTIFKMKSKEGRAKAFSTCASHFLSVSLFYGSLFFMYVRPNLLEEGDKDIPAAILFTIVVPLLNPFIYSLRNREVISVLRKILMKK
Experimental: Furaneol (3 mM) and each test substance (100 μM) were added to HEK293 cells allowed to express the olfactory receptor OR5K1 by the same procedures as in Example 2. The response of the olfactory receptor was measured to evaluate change in receptor response caused by the addition of the test substance.
The rate of inhibition of the receptor response by the test substance was calculated as follows: firefly luciferase-derived luminescence intensity (Y) in the olfactory receptor OR5K1-expressing cells without Furaneol stimulation was subtracted from luminescence intensity (X) induced by stimulation with Furaneol alone to determine receptor activity (X−Y) based on the stimulation with Furaneol alone. Likewise, the luminescence intensity (Y) in the cells without Furaneol stimulation was subtracted from luminescence intensity (Z) induced by stimulation with the mixture of Furaneol and the test substance to determine receptor activity (Z−Y) in the presence of the test substance. The rate of reduction in the receptor activity (Z−Y) in the presence of the test substance with respect to the receptor activity (X−Y) based on the stimulation with Furaneol alone was calculated according to an expression shown below to determine the rate of inhibition of the receptor response by the test substance. In this assay, a plurality of independent duplicate experiments were performed. An average of the experiments in each run was obtained. Rate of inhibition (%)={1−(Z−Y)/(X−Y)}×100

olfactory receptor OR5K1 [2] = target: T1, olfactory receptor OR5K1; test: Luciferase reporter gene assay, response of olfactory receptor to Furaneol; assay type: cell-based
Text: On the basis of sequence information registered in GenBank, each human olfactory receptor gene was cloned by PCR with Human Genomic DNA Female (G1521: Promega Corp.) as a template. Each gene thus amplified by PCR was inserted into a pENTR vector (Invitrogen Corp.) according to the manual. A NotI-AscI site present on the pENTR vector was recombined into a NotI-AscI site prepared downstream of a Flag-Rho tag sequence on a pME18S vector.
A gene (GenBank GI: 50234917) encoding a human receptor transporting protein, RTP1S was inserted into the EcoRI-XhoI site of the pME18S vector.
HEK293 cells expressing each of 400 types of human olfactory receptors were prepared. […]
The olfactory receptors expressed on the HEK293 cells are conjugated with intracellular Gas to activate adenylate cyclase, thereby increasing intracellular cAMP levels. In this study, their responses to Furaneol were measured using luciferase reporter gene assay which involved monitoring increase in intracellular cAMP level as luminescence intensity derived from a firefly luciferase gene (fluc2P-CRE-hygro). […]
A medium was removed from the cultures prepared in the preceding paragraph 3). […] The luciferase activity was measured using Dual-Glo™ luciferase assay system (Promega Corp.) according to the instruction manual of the product. […]

Row | Compound | inhibition at 100 µM (olfactory receptor OR5K1 [1]) | Concentration dependence of OR5K1 response to Furaneol (olfactory receptor OR5K1 [2]; Furaneol 0, 3, 10, 30, 100, 300, 1000, 3000 μM, OR5K1 with human RTP1S in HEK293 cells) | Response of olfactory receptors to Furaneol (fold increase in luminescence) (olfactory receptor OR5K1 [2]; Furaneol 3 mM, 400 types of human olfactory receptors in HEK293 cells)
1 | CC(=O)O[C@]1(C)CC[C@@]23C[C@@H]1C(C)(C)[C@@H]2CC[C@H]3C [Cedryl acetate] | ≥ 50% | – | –
2 | CC(=O)c1cc2c(cc1C)C(C)(C)C(C)CC2(C)C [Tonalid(R), 1-(5,6,7,8-tetrahydro-3,5,5,6,8,8-hexamethyl-2-naphthalenyl)-ethanone] | ≥ 75% | – | –
3 | CC1=C(O)C(=O)C(C)O1 (centres unmarked) [Furaneol, 2,5-dimethyl-4-hydroxy-3(2H)-furanone] | – | concentration-dependent response | only the olfactory receptor OR5K1 exhibited a response
4 | CC(C)=CCCC(C)=CC=O [Citral] | ≥ 75% | – | –
